Measured values from ChEMBL document CHEMBL3227933, “Synthesis and preliminary biological studies of 4- and 5-[2-hydroxy-3-(isopropylamino)propoxy]benzimidazoles: selective beta2 adrenergic blocking agents” (J Med Chem, 1979).

What was measured:
Conditions in all cases: read-out: pA2 (converted)
[1] = biological target: T1, Beta-1 adrenergic receptor (Cavia porcellus, UniProt B0FL73); experiment: Competitive antagonist activity at beta-1 adrenergic receptor in guinea pig assessed as inhibition of isoproterenol-induced atrial beat rate; design: species or system Cardiac atrium
T1 sequence (B0FL73 whole entry): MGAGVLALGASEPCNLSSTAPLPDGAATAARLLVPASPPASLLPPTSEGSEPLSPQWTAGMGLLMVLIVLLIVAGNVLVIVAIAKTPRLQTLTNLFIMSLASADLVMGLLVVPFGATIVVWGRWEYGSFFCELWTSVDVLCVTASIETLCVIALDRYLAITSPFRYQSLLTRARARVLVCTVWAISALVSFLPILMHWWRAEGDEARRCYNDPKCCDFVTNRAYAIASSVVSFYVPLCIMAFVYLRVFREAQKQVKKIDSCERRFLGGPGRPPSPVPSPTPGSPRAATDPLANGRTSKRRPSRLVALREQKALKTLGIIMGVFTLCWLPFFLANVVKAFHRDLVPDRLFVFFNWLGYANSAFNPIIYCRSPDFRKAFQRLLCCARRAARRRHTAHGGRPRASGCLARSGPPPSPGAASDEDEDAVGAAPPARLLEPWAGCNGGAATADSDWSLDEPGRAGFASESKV

[2] = biological target: T1, Beta-1 adrenergic receptor; experiment: Competitive antagonist activity at beta-1 adrenergic receptor in guinea pig assessed as inhibition of isoproterenol-induced atrial contractile force; design: species or system Cardiac atrium
[3] = biological target: Beta-2 adrenergic receptor (Cavia porcellus, UniProt Q8K4Z4); experiment: Competitive antagonist activity at beta-2 adrenergic receptor in guinea pig assessed as inhibition of isoproterenol-induced tracheal relaxation
Beta-2 adrenergic receptor, sequence (Q8K4Z4 whole entry): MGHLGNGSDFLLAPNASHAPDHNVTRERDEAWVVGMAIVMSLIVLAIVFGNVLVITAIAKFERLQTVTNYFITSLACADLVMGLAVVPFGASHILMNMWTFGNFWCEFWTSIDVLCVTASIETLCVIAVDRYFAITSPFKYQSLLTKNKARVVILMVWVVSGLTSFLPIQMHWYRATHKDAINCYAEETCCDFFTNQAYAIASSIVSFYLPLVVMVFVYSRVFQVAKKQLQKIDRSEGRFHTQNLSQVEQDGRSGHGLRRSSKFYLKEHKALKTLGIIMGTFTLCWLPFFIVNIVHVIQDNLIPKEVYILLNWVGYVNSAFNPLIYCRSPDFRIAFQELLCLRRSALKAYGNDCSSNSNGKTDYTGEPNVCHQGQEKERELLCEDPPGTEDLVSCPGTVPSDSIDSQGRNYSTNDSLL

SMILES	Kb [1]	Kb [2]	Kb [3]
CC(C)NCC(O)COc1ccc2[nH]cnc2c1 (stereo unspecified)	1000 nM	851 nM	380 nM
CC(C)NCC(O)COc1cccc2[nH]cnc12 (stereo unspecified)	39.8 nM	30.9 nM	2.29 nM
